PubChem BioAssay AID602338 (NMMLSC, 2012)
Calls of active or inactive are those of the source. No rule for the calls is given here.

Target: Botulinum neurotoxin type F (Clostridium botulinum) (UniProt P30996)
Assay: Botulinum neurotoxin type F protease inhibition, microsphere cleavage flow cytometry, confirmatory dose response (AID 602338)
Details: multiplex microsphere protease cleavage assay

| Structure (SMILES) | EC50 |
| --- | --- |
| O=C(Nc1ccc2nc(-c3cccs3)c(-c3cccs3)nc2c1)N1CCOCC1 | > 20 µM (inactive) |
| CCSc1nnc(-c2sc3nnc(-c4ccccc4)c(-c4ccccc4)c3c2N)o1 | > 20 µM (inactive) |
| O=c1c(/C=C(\O)c2ccccc2)nc2ccccc2n1-c1ccccc1 | > 20 µM (inactive) |
| c1ccc(-c2cn3nc(-c4ccccc4)c(-c4ccccc4)nc3n2)cc1 | > 20 µM (inactive) |
| COc1ccc(C2CC(c3cccs3)=NN2c2nc(C)c(C(C)=O)s2)cc1OC (centres undefined) | > 20 µM (inactive) |
| Cn1c(=O)c(/C=C/c2ccccc2)nc2ccccc21 | > 20 µM (inactive) |
| CCOc1ccc2nc3cc(NCc4ccc(OC)cc4)ccc3c(N)c2c1 | > 20 µM (inactive) |
| O=[N+]([O-])c1cccc(-c2cn3nc(-c4ccccc4)c(-c4ccccc4)nc3n2)c1 | > 20 µM (inactive) |
| O=C(Nc1ccc2nc(-c3cccs3)c(-c3cccs3)nc2c1)NC1CC1 | > 20 µM (inactive) |
| CCS(=O)(=O)N1N=C(c2cccc(NS(C)(=O)=O)c2)CC1c1ccccc1 (centres undefined) | > 20 µM (inactive) |
| CS(=O)(=O)N1N=C(c2ccccc2)CC1c1ccc2c(c1)OCO2 (centres undefined) | > 20 µM (inactive) |
| COc1ccc(OC)c(-c2nc3cc4ccccc4cc3nc2-c2ccccc2)c1 | > 20 µM (inactive) |
| CSc1nnc2c(n1)c(C)nn2-c1cccc(C)c1 | > 20 µM (inactive) |
| Oc1[nH]c(N=C2N=c3ccccc3=N2)c2ccccc12 | > 20 µM (inactive) |
